# Measurements as given in patent US10918645B2 (LIFEARC, priority 2016, dated 2021).
# Tests used:
# Assay type in all cases: biochemical
# Conditions in all cases: 1 μM inhibitor concentration
# BTK = BTK (Homo sapiens (Human), UniProt Q06187); test: BTK kinase selectivity assay
# Experimental: (§1) BTK (5-20 mU diluted in 50 mM Tris pH 7.5, 0.1 mM EGTA, 1 mg/ml BSA) is assayed against a substrate peptide ([…]) in a final volume of 25.5 μl containing 50 mM Tris pH 7.5, 300 µM substrate peptide, 10 mM magnesium acetate and 0.05 mM [33P-g-ATP] (50-1000 cpm/pmole) and incubated for 30 min at room temperature. Assays are stopped by addition of 5 μl of 0.5 M (3%) orthophosphoric acid and then harvested onto P81 Unifilter plates with a wash buffer of 50 mM orthophosphoric acid.
# CHK1 = CHK1 (Homo sapiens (Human), UniProt O14757); test: CHK1 kinase selectivity assay
# Experimental: CHK1 (5-20 mU diluted in 20 mM MOPS pH 7.5, 1 mM EDTA, 0.1% b-mercaptoethanol, 0.01% Brij-35, 5% glycerol, 1 mg/ml BSA) is assayed against CHKtide substrate peptide ([…]) in a final volume of 25.5 μl containing 8 mM MOPS pH 7.0, 0.2 mM EDTA, 200 μM CHKtide, 10 mM magnesium acetate and 0.02 mM [33P-g-ATP](50-1000 cpm/pmole) and incubated for 30 min at room temperature Assays are stopped by addition of 5 μl of 0.5 M (3%) orthophosphoric acid and then harvested onto P81 Unifilter plates with a wash buffer of 50 mM orthophosphoric acid.
# Src = Src (Homo sapiens (Human), UniProt P12931); test: Src kinase selectivity assay
# Experimental: as §1, with “Src (5-20 mU” for “BTK (5-20 mU”, “mM EGTA, 0.1% b-mercaptoethanol, 1 mg/ml” for “mM EGTA, 1 mg/ml”, “pH 7.5, 0.05% b-mercaptoethanol, 300 μM” for “pH 7.5, 300 µM”, “b-mercaptoethanol, 300 μM substrate peptide,” for “7.5, 300 µM substrate peptide,”
# Lck = Lck kinase selectivity assay
# Experimental: LCK (5-20 mU diluted in 20 mM MOPS pH 7.5, 1 mM EDTA, 0.01% Brij35, 5% glycerol, 0.1% b-mercaptoethanol, 1 mg/ml BSA) is assayed against Cdc2 peptide ([…]) in a final volume of 25.5 μl containing 50 mM Tris pH 7.5, 0.1 mM EGTA, 0.1 mM Na3Vo4, Cdc2 peptide (0.25 mM), 10 mM magnesium acetate and 0.05 mM [33P-g-ATP](500-1000 cpm/pmole) and incubated for 15 min at room temperature Assays are stopped by addition of 5 μl of 0.5 M (3%) orthophosphoric acid and then harvested onto P81 Unifilter plates with a wash buffer of 50 mM orthophosphoric acid.
# IR = IR (Homo sapiens (Human), UniProt P06213); test: IR kinase selectivity assay
# Experimental: as §1, with “IR-HIS” for “BTK”, “0.02” for “0.05”
# RSK2 = RSK2 (Homo sapiens (Human), UniProt P51812); test: RSK2 kinase selectivity assay
# Experimental: MAPKAP-K1b (5-20 mU diluted in 20 mM MOPS pH 7.5, 1 mM EDTA, 0.01% Brij35, 5% glycerol, 0.1% b-mercaptoethanol, 1 mg/ml BSA) is assayed against substrate peptide ([…]) in a final volume of […] containing 50 mM Na-b-glycerophosphate (pH 7.5), 0.5 mM EDTA, 30 μM substrate peptide, 10 mM magnesium acetate and 0.05 mM [33P-g-ATP] (50-1000 cpm/pmole) and incubated for 30 min at room temperature. Assays are stopped by addition of 5 μl of 0.5 M (3%) orthophosphoric acid and then harvested onto P81 Unifilter plates with a wash buffer of 50 mM orthophosphoric acid.
# Chain of BTK (Q06187 whole entry, species assumed): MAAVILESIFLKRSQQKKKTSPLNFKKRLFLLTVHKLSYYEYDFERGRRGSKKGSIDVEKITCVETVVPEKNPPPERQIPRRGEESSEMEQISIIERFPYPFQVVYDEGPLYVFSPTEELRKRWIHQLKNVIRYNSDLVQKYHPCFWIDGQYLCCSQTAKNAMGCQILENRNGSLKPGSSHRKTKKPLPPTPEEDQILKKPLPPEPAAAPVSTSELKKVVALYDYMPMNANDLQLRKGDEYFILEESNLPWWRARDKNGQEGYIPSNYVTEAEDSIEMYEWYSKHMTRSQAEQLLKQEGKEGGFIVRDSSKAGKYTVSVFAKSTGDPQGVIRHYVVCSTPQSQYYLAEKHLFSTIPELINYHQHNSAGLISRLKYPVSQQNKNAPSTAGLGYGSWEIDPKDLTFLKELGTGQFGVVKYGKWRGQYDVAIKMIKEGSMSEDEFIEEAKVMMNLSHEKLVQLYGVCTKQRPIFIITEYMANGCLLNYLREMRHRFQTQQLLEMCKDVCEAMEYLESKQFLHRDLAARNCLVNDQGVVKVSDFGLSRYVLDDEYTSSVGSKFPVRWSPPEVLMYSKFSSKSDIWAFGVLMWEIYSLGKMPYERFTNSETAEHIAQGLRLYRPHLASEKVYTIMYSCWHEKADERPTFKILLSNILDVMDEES
# Chain of RSK2 (P51812 whole entry, species assumed): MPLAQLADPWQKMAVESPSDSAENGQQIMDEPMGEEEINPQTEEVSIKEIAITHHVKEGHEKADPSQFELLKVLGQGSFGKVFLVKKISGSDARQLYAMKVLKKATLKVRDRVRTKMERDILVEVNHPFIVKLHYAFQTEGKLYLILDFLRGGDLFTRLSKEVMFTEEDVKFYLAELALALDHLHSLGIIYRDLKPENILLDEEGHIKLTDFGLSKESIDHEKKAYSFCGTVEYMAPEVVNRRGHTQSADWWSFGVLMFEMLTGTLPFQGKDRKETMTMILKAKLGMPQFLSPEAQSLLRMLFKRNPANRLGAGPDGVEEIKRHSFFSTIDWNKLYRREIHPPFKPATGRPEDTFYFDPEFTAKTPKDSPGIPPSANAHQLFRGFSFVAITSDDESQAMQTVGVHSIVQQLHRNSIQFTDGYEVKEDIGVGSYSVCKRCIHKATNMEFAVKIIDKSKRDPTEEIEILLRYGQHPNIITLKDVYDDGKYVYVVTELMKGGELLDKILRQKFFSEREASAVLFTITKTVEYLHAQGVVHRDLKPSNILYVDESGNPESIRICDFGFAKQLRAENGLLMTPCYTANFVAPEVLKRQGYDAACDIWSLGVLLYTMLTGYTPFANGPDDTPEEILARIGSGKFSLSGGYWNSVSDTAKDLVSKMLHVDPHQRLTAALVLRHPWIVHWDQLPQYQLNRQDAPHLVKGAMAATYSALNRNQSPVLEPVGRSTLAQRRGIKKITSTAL
# Chain of Src (P12931 whole entry, looked up, species assumed): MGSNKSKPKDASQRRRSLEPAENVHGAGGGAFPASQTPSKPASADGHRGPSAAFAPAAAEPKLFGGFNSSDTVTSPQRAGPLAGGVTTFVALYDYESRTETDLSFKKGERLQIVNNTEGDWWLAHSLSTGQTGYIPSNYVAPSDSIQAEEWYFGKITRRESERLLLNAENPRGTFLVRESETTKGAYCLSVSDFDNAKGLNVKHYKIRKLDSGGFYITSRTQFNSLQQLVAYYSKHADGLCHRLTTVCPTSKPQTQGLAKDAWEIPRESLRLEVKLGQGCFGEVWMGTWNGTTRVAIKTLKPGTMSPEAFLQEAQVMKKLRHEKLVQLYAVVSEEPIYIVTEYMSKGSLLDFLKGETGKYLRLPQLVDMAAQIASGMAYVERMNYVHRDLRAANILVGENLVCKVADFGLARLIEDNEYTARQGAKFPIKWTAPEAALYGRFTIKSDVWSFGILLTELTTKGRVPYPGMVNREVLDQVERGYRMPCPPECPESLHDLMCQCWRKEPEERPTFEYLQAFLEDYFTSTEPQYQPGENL
# Chain of CHK1 (O14757 whole entry, species assumed): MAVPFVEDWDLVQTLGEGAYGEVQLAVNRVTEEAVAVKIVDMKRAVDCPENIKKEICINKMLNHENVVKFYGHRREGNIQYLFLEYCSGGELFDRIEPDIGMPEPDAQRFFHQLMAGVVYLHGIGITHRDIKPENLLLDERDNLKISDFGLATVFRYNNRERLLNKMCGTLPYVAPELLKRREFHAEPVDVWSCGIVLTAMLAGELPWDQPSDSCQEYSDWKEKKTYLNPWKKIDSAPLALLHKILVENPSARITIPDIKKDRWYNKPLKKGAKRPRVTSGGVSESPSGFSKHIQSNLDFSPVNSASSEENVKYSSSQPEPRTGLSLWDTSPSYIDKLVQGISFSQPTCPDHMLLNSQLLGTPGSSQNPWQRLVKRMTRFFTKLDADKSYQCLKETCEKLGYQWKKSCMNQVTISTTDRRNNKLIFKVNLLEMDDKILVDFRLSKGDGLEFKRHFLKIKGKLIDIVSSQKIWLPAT
# Chain of IR (P06213 28-1382): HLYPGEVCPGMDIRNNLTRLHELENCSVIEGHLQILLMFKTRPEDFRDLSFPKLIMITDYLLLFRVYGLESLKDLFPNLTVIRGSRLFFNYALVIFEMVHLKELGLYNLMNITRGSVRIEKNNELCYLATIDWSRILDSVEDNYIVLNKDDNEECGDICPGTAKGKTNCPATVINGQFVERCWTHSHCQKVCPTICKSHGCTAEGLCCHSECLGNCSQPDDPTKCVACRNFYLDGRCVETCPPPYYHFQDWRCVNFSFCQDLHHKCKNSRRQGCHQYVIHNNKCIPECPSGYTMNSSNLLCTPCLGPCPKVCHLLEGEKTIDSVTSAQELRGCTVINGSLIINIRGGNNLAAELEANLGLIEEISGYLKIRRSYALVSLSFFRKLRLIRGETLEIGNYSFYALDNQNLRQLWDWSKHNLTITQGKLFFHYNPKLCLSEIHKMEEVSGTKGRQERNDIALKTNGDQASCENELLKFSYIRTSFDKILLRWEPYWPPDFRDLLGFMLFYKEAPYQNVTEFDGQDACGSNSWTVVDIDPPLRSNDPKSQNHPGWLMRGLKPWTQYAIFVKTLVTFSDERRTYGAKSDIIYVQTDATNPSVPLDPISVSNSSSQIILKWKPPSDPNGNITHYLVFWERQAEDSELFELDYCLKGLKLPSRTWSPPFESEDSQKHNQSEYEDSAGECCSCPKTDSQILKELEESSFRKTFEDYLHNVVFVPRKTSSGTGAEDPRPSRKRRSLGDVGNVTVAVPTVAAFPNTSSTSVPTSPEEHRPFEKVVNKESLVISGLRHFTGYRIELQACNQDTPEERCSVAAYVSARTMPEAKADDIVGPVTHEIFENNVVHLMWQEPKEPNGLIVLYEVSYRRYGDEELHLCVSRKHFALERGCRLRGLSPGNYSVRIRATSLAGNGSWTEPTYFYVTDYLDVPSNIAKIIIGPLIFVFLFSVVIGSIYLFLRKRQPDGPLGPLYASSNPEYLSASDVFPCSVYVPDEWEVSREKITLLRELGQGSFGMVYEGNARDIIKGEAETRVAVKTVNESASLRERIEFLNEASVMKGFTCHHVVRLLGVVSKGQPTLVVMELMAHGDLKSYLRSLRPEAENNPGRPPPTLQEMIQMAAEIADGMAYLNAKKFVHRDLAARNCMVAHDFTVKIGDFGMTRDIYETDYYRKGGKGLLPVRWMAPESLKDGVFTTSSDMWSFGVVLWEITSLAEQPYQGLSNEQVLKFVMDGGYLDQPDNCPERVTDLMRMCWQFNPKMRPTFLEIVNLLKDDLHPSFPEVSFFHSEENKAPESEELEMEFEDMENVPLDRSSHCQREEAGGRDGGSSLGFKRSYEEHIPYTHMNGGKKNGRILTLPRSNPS
SMILES,percentage inhibition of BTK (BTK) [percentage],percentage inhibition of CHK1 (CHK1) [percentage],percentage inhibition of Src (Src) [percentage],percentage inhibition of Lck (Lck) [percentage],percentage inhibition of IR (IR) [percentage],percentage inhibition of RSK2 (RSK2) [percentage]
CC(C)n1ncc2c1CN(C1CCN(C)CC1)c1nccc3[nH]nc-2c13 [Example 68],0,28,0,0,0,54
"c1cc2[nH]nc3c2c(n1)N(C1CCC1)CCC3 [Example 22, 6-cyclobutyl-6,7,8,9-tetrahydro-2H-1,2,5,6-tetraazabenzo[cd]azulene]",0,2,13,0,27,8
"c1cc2[nH]nc3c2c(n1)N(C1CCCC1)CCC3 [Example 23, 6-cyclopentyl-6,7,8,9-tetrahydro-2H-1,2,5,6-tetraazabenzo[cd]azulene]",0,0,0,,1,5
CN1CCC(N2Cc3ccccc3-c3n[nH]c4ccnc2c34)CC1 [Example 55],0,42,1,6,5,21
"c1cc2[nH]nc3c2c(n1)N(C1CCOCC1)CCC3 [Example 29, 6-(tetrahydro-2H-pyran-4-yl)-6,7,8,9-tetrahydro-2H-1,2,5,6-tetraazabenzo[cd]azulene]",0,0,0,0,2,0
